Several values for one entry are separate records, joined by “and”; a condition that tells them apart may be missing. Equal values may be shown once.
Tests used:
[1] = system: monocotylidonous and dicotylidonous weed and crop plants; experiment: Herbicidal post-emergence action (other test plants); assay type: in vivo; details: post-emergence method; for herbicidal effect against AVEFA (Avena fatua): 80 g/ha; for pest or weed control at 80 g/ha: 504 h, Avena fatua, read-out: herbicidal effect against AVEFA (Avena fatua)
Procedure, shortened: (§1)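 One-leaf-stage greenhouse plants sprayed with WP at graded amounts (600 l/ha, 0.2% wetting agent); ~3 wk later, visual % effect rated vs untreated controls, 100% = dead, 0% = like control.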

Lolium multiflorum [2] = experiment: Herbicidal post-emergence action; assay type: in vivo; details: post-emergence method; for herbicidal effect against LOLMU (Lolium multiflorum): 80 g/ha; for pest or weed control at 80 g/ha: Lolium multiflorum, 504 h, read-out: herbicidal effect against LOLMU (Lolium multiflorum)
Procedure, shortened: as §1

Setaria viridis [3] = experiment: Herbicidal post-emergence action; assay type: in vivo; details: post-emergence method; for herbicidal effect against SETVI (Setaria viridis): 80 g/ha; for pest or weed control at 80 g/ha: Setaria viridis, 504 h, read-out: herbicidal effect against SETVI (Setaria viridis)
Procedure, shortened: as §1

Alopecurus myosuroides [4] = experiment: Herbicidal post-emergence action; assay type: in vivo; details: post-emergence method; for herbicidal effect against ALOMY (Alopecurus myosuroides): 80 g/ha; for pest or weed control at 80 g/ha: Alopecurus myosuroides, 504 h, read-out: herbicidal effect against ALOMY (Alopecurus myosuroides)
Procedure, shortened: as §1

Echinocloa crus-galli [5] = experiment: Herbicidal post-emergence action; assay type: in vivo; details: post-emergence method; for herbicidal effect against ECHCG (Echinochloa crus-galli): 80 g/ha; for pest or weed control at 80 g/ha: Echinochloa crus-galli, 504 h, read-out: herbicidal effect against ECHCG (Echinochloa crus-galli)
Procedure, shortened: as §1

cereals = experiment: Container trials with cereals in the greenhouse, use of safeners (Mefenpyr 1 day prior to herbicide application); assay type: in vivo
Procedure: Seeds of monocotylidonous and dicotylidonous weed and crop plants are placed in sandy loam in wood fibre pots, covered with soil and cultivated in a greenhouse under good growth conditions. Two to three weeks after sowing, the test plants are treated at the one-leaf stage. The test compounds, formulated as wettable powders (WP), are then with a water application rate of 600 l/ha (converted), with 0.2% of wetting agent added, sprayed onto the green parts of the plants in different amounts. After the test plants have been kept in the greenhouse under optimum growth conditions for about three weeks, the effect of the preparations is assessed visually in comparison to untreated controls (herbicidal effect in percent: 100% effect=the plants have died, 0% effect=like control plants).
If it is to be additionally tested as to whether safeners can improve the plant compatibility of test substances in the case of crop plants, the following options are used for applying the safeners: • Seeds of the crop plants are, before sowing, dressed with safener substance (the amount of safener stated in percent, based on the weight of the seed) • Before the application of the test substances, the crop plants are sprayed with the safener at a certain application rate per hectare (usually one day before the application of the test substances) • The safener is applied together with the test substance as a tank mix (the amount of safener stated in g/ha or as a ratio, based on the herbicide).
Container Trials with Cereals in the Greenhouse

[6] = system: monocotylidonous and dicotylidonous weed and crop plants; experiment: Herbicidal pre-emergence action (other test plants); assay type: in vivo; details: pre-emergence method, 80 g/ha, greenhouse, visual assessment vs untreated controls
Procedure, shortened: (§2)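 Seeds sown in sandy loam and covered; WP-formulated compounds applied to the soil surface as aqueous suspension at 600 l/ha with 0.2% wetting agent, at varying rates. Greenhouse-grown; emergence damage scored visually after three weeks versus untreated controls (100% = plants dead, 0% = like control).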

Lolium multiflorum [7] = experiment: Herbicidal pre-emergence action; assay type: in vivo; details: pre-emergence method, 80 g/ha, greenhouse, visual assessment vs untreated controls
Procedure, shortened: as §2

Setaria viridis [8] = experiment: Herbicidal pre-emergence action; assay type: in vivo; details: pre-emergence method, 80 g/ha, greenhouse, visual assessment vs untreated controls
Procedure, shortened: as §2

Alopecurus myosuroides [9] = experiment: Herbicidal pre-emergence action; assay type: in vivo; details: pre-emergence method, 80 g/ha, greenhouse, visual assessment vs untreated controls
Procedure, shortened: as §2

Echinocloa crus-galli [10] = experiment: Herbicidal pre-emergence action; assay type: in vivo; details: pre-emergence method, 80 g/ha, greenhouse, visual assessment vs untreated controls
Procedure, shortened: as §2

maize = experiment: Crop compatibility small plot trial outdoors with maize, post-emergence, with and without safener; assay type: in vivo; details: 60 g ai/ha (with safener 60 + 60)
Procedure: Method crop compatibility small plot trial outdoors: • Customary sowing using a single seed seeder • Plot size: 11.25 m^2/two repetitions
Treatment was carried out using a plot sprayer. The safener was applied together with the test substance as a tank mix using 300 l of water/ha (amounts of herbicide and safener are stated in g of ai/ha). Post-emergence application was carried out at the five-leaf stage of maize. Crop compatibility was assessed visually 14 and 27 days after the treatment (in percent compared to an untreated control), 100% damage=the plants have died, 0% damage=like control plants). • Outside trial with maize (Magixx Duo is cycloxidim-tolerant) • Post-Emergence Method

[11] = Penetration of active compounds through enzymatically isolated cuticles of apple tree leaves; assay type: in vitro ADME, apple trees of the cultivar Golden Delicious; details: 20° C., 60% rh
Procedure: Increase of penetration into the plant by ammonium or phosphonium salts and synergistic increase of penetration into the plant by ammonium/phosphonium salts in combination with penetrants.
In this test, the penetration of active compounds through enzymatically isolated cuticles of apple tree leaves was measured.
Use was made of leaves which, fully developed, were cut from apple trees of the cultivar Golden Delicious. The cuticles were isolated by • initially filling leaf discs punched out and stained with dye on the underside by vacuum infiltration with a pectinase solution (0.2 to 2% strength) buffered to a pH between 3 and 4, • […] allowing the leaf discs treated in this manner to stand until the original leaf structure has dissolved and the non-cellular cuticles have detached.
Only the cuticles, free from hairs and stoma, of the upper sides of the leaves were then used. They were washed repeatedly alternating with water and a buffer solution of pH 7. The clean cuticles obtained were then mounted on Teflon plates and smoothed and dried with a gentle stream of air.
In the next step, the cuticle membranes obtained in this manner were placed into stainless steel diffusion cells (=transport chambers) for membrane transport studies. To this end, the cuticles were placed with a pincet into the centre of the edges, coated with silicone fat, of the diffusion cells and closed with a ring, which had also been treated with fat. The arrangement was chosen such that the morphological outside of the cuticles was facing outwards, i.e. exposed to air, whereas the original inside was facing the interior of the diffusion cells.
The diffusion cells were filled with a 30% strength ethylene glycol/water solution. To determine the penetration, in each case 10 μl of the spray liquor of the composition below were applied to the outside of the cuticles. The spray liquor was prepared using local tap water of medium hardness.
After the spray liquors had been applied, the water was allowed to evaporate and the chambers were inverted and placed into thermostatic […] in which temperature and atmospheric humidity over the cuticles could be adjusted using a gentle stream of air onto the cuticles with the spray coating (20° C., 60% rh). At regular intervals, an autosampler took aliquots and the active compound content was determined by HPLC.
The stated numbers are average values of eight to ten measurements.

[12] = 10 days after application, 25 g of a.i./ha
[13] = 10 days after application, 50 g of a.i./ha
[14] = 10 days after application, 100 g of a.i./ha
[15] = 28 days after application, 12.5 g of a.i./ha
[16] = 28 days after application, 25 g of a.i./ha
[17] = 28 days after application, 50 g of a.i./ha
[18] = 28 days after application, 100 g of a.i./ha

CCc1cc(C)cc(CC)c1C1=C(O)[C@H]2CC3(C[C@H]2C1=O)OCCO3 (relative stereo) [I-a-8]
herbicidal effect against AVEFA (Avena fatua) [1]: 100% | herbicidal effect against LOLMU (Lolium multiflorum) (Lolium multiflorum [2]): 100% | herbicidal effect against SETVI (Setaria viridis) (Setaria viridis [3]): 100% | herbicidal effect against ALOMY (Alopecurus myosuroides) (Alopecurus myosuroides [4]): 100% | herbicidal effect against ECHCG (Echinochloa crus-galli) (Echinocloa crus-galli [5]): 100% | Summer barley observed (%) (cereals; [12]): 10% | Summer barley observed (%) (cereals; [13]): 20% | Summer barley observed (%) (cereals; [14]): 20% | Summer wheat observed (%) (cereals; 10 days after application, 12.5 g of a.i./ha): 20% | Summer wheat observed (%) (cereals; [12]): 40% and 20% | Summer wheat observed (%) (cereals; [13]): 50% and 30% | Summer wheat observed (%) (cereals; [14]): 60% and 30% | herbicidal effect AVEFA [6]: 60% | herbicidal effect LOLMU (Lolium multiflorum [7]): 100% | herbicidal effect SETVI (Setaria viridis [8]): 90% | herbicidal effect ALOMY (Alopecurus myosuroides [9]): 100% | herbicidal effect ECHCG (Echinocloa crus-galli [10]): 90% | % damage (maize; maize cultivar Magixx Duo (cycloxidim-tolerant), 14 days after application): 0% | % damage (maize; maize cultivar Magixx Duo (cycloxidim-tolerant), 27 days after application): 0% | % damage (maize; maize cultivar Oldham, 14 days after application): 94% | % damage (maize; maize cultivar Oldham, 27 days after application): 93%

CCc1cc(C)cc(CC)c1C1=C(O)[C@H]2C[C@@]3(COC(C)(C)O3)C[C@H]2C1=O [I-a-1]
pest or weed control at 80 g/ha [1]: 90% | pest or weed control at 80 g/ha (Lolium multiflorum [2]): 100% | pest or weed control at 80 g/ha (Alopecurus myosuroides [4]): 100% | pest or weed control at 80 g/ha (Echinocloa crus-galli [5]): 100% | herbicidal effect AVEFA [6]: 80% | Penetration after 24 h ([11]; a.i. (0.2 g/l) + AS = ammonium sulphate (0.7 g/l)): 4% | Penetration after 24 h ([11]; a.i. (0.2 g/l) + Edenor ME SU 500 EW (2 g/l) + AS (0.7 g/l)): 13% | Penetration after 24 h ([11]; a.i. (0.2 g/l) + Edenor Me SU 500 EW (2 g/l)): 11.5% | Penetration after 24 h ([11]; a.i. (0.2 g/l) alone, average of eight to ten measurements): 2.5% | herbicidal effect LOLMU (Lolium multiflorum [7]): 100% | herbicidal effect SETVI (Setaria viridis [8]): 60% | herbicidal effect ALOMY (Alopecurus myosuroides [9]): 90% | herbicidal effect ECHCG (Echinocloa crus-galli [10]): 50%

CCc1cc(C)cc(CC)c1C1=C(O)[C@H]2C[C@]3(COC(C)(C)O3)C[C@H]2C1=O [I-a-2]
pest or weed control at 80 g/ha [1]: 70% | pest or weed control at 80 g/ha (Lolium multiflorum [2]): 100% | pest or weed control at 80 g/ha (Setaria viridis [3]): 90% | pest or weed control at 80 g/ha (Alopecurus myosuroides [4]): 100% | pest or weed control at 80 g/ha (Echinocloa crus-galli [5]): 100% | Summer wheat observed (%) (cereals; [15]): 40% | Summer wheat observed (%) (cereals; [16]): 50% | Summer wheat observed (%) (cereals; [17]): 60% | herbicidal effect AVEFA [6]: 50% | herbicidal effect LOLMU (Lolium multiflorum [7]): 100% | herbicidal effect SETVI (Setaria viridis [8]): 50% | herbicidal effect ALOMY (Alopecurus myosuroides [9]): 90% | herbicidal effect ECHCG (Echinocloa crus-galli [10]): 90%

C=C1COC2(C[C@@H]3C(O)=C(c4c(CC)cc(C)cc4CC)C(=O)[C@@H]3C2)OC1 [I-a-3]
pest or weed control at 80 g/ha [1]: 90% | pest or weed control at 80 g/ha (Lolium multiflorum [2]): 100% | pest or weed control at 80 g/ha (Setaria viridis [3]): 100% | pest or weed control at 80 g/ha (Alopecurus myosuroides [4]): 90% | pest or weed control at 80 g/ha (Echinocloa crus-galli [5]): 100% | Summer barley observed (%) (cereals; [16]): 20% | Summer barley observed (%) (cereals; [17]): 60% | Summer barley observed (%) (cereals; [18]): 70% | Summer wheat observed (%) (cereals; [15]): 10% | Summer wheat observed (%) (cereals; [16]): 60% | Summer wheat observed (%) (cereals; [17]): 70% | Summer wheat observed (%) (cereals; [18]): 85% | herbicidal effect AVEFA [6]: 80% | herbicidal effect LOLMU (Lolium multiflorum [7]): 100% | herbicidal effect SETVI (Setaria viridis [8]): 100% | herbicidal effect ALOMY (Alopecurus myosuroides [9]): 100% | herbicidal effect ECHCG (Echinocloa crus-galli [10]): 100%

C=C1COC2(CC3C(=O)C(c4c(CC)cc(C)cc4CC)=C(OC(=O)C(C)C)C3C2)OC1 (centres unmarked) [I-b-13]
herbicidal effect against AVEFA (Avena fatua) [1]: 100% | herbicidal effect against LOLMU (Lolium multiflorum) (Lolium multiflorum [2]): 100% | herbicidal effect against SETVI (Setaria viridis) (Setaria viridis [3]): 100% | herbicidal effect against ALOMY (Alopecurus myosuroides) (Alopecurus myosuroides [4]): 100% | herbicidal effect against ECHCG (Echinochloa crus-galli) (Echinocloa crus-galli [5]): 100% | Summer barley observed (%) (cereals; [17]): 20% | Summer barley observed (%) (cereals; [18]): 50% | Summer wheat observed (%) (cereals; [15]): 20% | Summer wheat observed (%) (cereals; [16]): 40% | Summer wheat observed (%) (cereals; [17]): 80% | Summer wheat observed (%) (cereals; [18]): 85% | herbicidal effect AVEFA [6]: 80% | herbicidal effect LOLMU (Lolium multiflorum [7]): 100% | herbicidal effect SETVI (Setaria viridis [8]): 100% | herbicidal effect ALOMY (Alopecurus myosuroides [9]): 100% | herbicidal effect ECHCG (Echinocloa crus-galli [10]): 100%
